Laboratory results reported in US4277479A, “Tetrazolylalkoxycarbostyril derivatives and pharmaceutical compositions containing them” (Otsuka Pharmaceutical Co., Ltd., priority 1978, dated 1981).

Assays:
[1] = test system: Deoxycorticosteroneacetate (DOCA)/saline hypertension rats (DHR); experiment: Hypo-tensive effect, Deoxycorticosteroneacetate (DOCA)/saline hypertension rats (DHR), tail-cuff method; type: in vivo, rat; conditions: 30 mg/kg oral, mean ± standard deviation
Method: (§1) Hypo-tensive effect of the compounds was measured by determining the maximum blood pressure of the test animals according to a procedure of Tail-cuff method.
(§2) The following types of test animals were used:
(2) Deoxycorticosteroneacetate (DOCA)/saline hypertension rats (DHR)
Wistar strain male rats having 150-170 g of body weight were anesthetized with ether and the left-side kidney was enucleated. One(1) week after the operation, 10 mg/kg of DOCA was injected subcutaneously once a week and 1% NaCl aqueous solution was given as drinking water. Five(5) weeks after the operation, rats having the maximum blood pressure over 150 mmHg were selected and used as test animals after having been denied food overnight.
(§3) Each of compounds to be tested was administered orally and the blood pressure of the rats was measured before the administration and 1, 2, 4, 6 and 8 hours after the administration. The blood pressure was measured by using Recorder (Rectihoriz type 8S, San-ei Instrument) and Electrosthygmomanometer PE-300 (Macro Bio-systems, Houston, Tex.).

[2] = test system: Gold blatt type renoprival hypertension rats (RHR); experiment: Hypo-tensive effect, Gold blatt type renoprival hypertension rats (RHR), tail-cuff method; type: in vivo, rat; conditions: 30 mg/kg oral, mean ± standard deviation
Method: as §1, §2
(1) Gold blatt type renoprival hypertension rats (RHR)
Wistar strain male rats having 160-180 g of body weight were anesthetized with ether and the left-side renal artery was plugged with a silver clip having 0.2 mm inside diameter, while the right-side renal artery was kept as it was without operation. Four (4) weeks after the operation, rats having the maximum blood pressure over 150 mmHg were selected and used as test animals after having been denied food overnight.
as §3

[3] = test system: rabbit platelet (ADP-induced aggregation); experiment: Platelet aggregation inhibitory effect, ADP-induced aggregation in rabbit platelet; type: cell-based; conditions: Oryctolagus cuniculus; for inhibition at 100 µM: concentration of the test compound solution 10^-4 mole; for inhibition at 100 µM / inhibition at 10 µM: read-out: Inhibition effect on ADP-induced aggregation in rabbit platelet; for inhibition at 10 µM: concentration of the test compound solution 10^-5 mole; for inhibition at 1 µM: concentration of the test compound solution 10^-6 mole
Source text: The blood sample used for the test is a 1/9 (by volume) mixture of sodium citrate and whole blood collected from rabbit. Said sample is subjected to 10-minute centrifugal separation at 1,000 r.p.m. to obtain a platelet rich plasma (PRP). The thus obtained PRP is separated, and the remaining blood sample is further subjected to 15-minute centrifugal separation at 3,000 r.p.m. to obtain a platelet poor plasma (PPP).
The number of platelets in the PRP is counted by the Brecher-Clonkite Method, and the PRP is diluted with the PPP to prepare a PRP sample with platelet concentration of 300,000/mm^3 for the adenosine diphosphate (ADP)-induced aggregation test. There is also prepared a PRP sample with platelet concentration of 450,000/mm^3 for the collagen-induced aggregation test.
0.6 Ml of said PRP sample is added into 0.01 ml of a solution of a test compound of a predetermined concentration and the mixture is placed in a 37° C. thermostat for one minute. Then 0.07 ml of an ADP or collagen solution is added to the mixture. Transmittance of this mixture is determined and the change of transmittance is recorded by using the aggregometer at stirrer speed of 1,100 r.p.m. […] ADP is adjusted to a concentration of 7.5×10^-5 M, and the collagen solution is prepared by triturating 100 mg of collagen with 5 ml of said buffer and the supernatant is used as collagen inducer. Adenosine and acetylsalicylic acid are used as controls for the ADP-induced aggregation test and the collagen-induced aggregation test, respectively. The platelet aggregation inhibitory effect is measured in terms of percent inhibition with respect to the aggregation rate of the controls. The aggregation rate is calculated from the following formula: [formula] wherein a: transmittance of PRP
b: transmittance of PRP containing a test compound and an aggregation inducer
The compounds tested are as follows.

[4] = test system: cerebral blood flow, bastard dog; experiment: Increasing effect of cerebral blood flow in anesthetized dog; type: in vivo; conditions: Canis lupus familiaris, iv, through profunda femoris vein, dog; for change in vivo at 0.3 mg/kg: dosage 300 μg/kg
Method: (Test of increasing effect of cerebral blood flow)
Thus, a bastard dog (male, 12-20 kg of body weight) was fixed in a prone (position) and was anesthetized with […] of pentobarbital sodium and forced to breathe at a frequency of respiration of 20 times/minute. Then, the skull was bared and the surface bone was removed to expose the venous sinus by using a grinder and the venous blood was taken out from the venas which was cannulizated. The amount of venous blood flow was measured by using an electromagnetic blood flow meter and next measured by using drop-counter to measure the number of drops of blood per 10 seconds.
The increasing effect of cerebral blood flow was calculated by comparing the number of blood drops in 30 seconds at the peak of increasement shown before and after the administration of compound to be tested. Each of the compounds to be tested was dissolved in dimethylformamide and diluted with physiological saline solution and administered through a cannule being inserted into the profunda femoris vein.

Acute toxicity test = conditions: mouse, in vivo; male mice, oral administration
Method: The test compounds were administered orally to the mice and LD50 (mg/kg) of the compounds was determined.

Compound | Maximum blood pressure, difference after the administration ([1]; 1 hour) [mmHg] | Maximum blood pressure, difference after the administration ([1]; 2 hours) [mmHg] | Maximum blood pressure, difference after the administration ([1]; 4 hours) [mmHg] | Maximum blood pressure, difference after the administration ([1]; 6 hours) [mmHg] | Maximum blood pressure, difference after the administration ([1]; 8 hours) [mmHg] | Maximum blood pressure, difference after the administration ([2]; 1 hour) [mmHg] | Maximum blood pressure, difference after the administration ([2]; 2 hours) [mmHg] | Maximum blood pressure, difference after the administration ([2]; 4 hours) [mmHg] | Maximum blood pressure, difference after the administration ([2]; 6 hours) [mmHg] | Maximum blood pressure, difference after the administration ([2]; 8 hours) [mmHg] | inhibition at 100 µM [3] [%] | inhibition at 10 µM [3] [%] | inhibition at 1 µM [3] [%] | change in vivo at 0.3 mg/kg [4] [%] | LD50 (Acute toxicity test) [mg/kg] | change in vivo at 0.03 mg/kg ([4]; dosage 30 μg/kg) [%]
O=c1ccc2cc(OCCCCc3nnnn3C3CCCCC3)ccc2[nH]1 [Compound 7, 6-[4-(1-Cyclohexyltetrazol-5-yl)butoxy]carbostyril] | -8.4 ± 10.3 | -11.5 ± 8.5 | -14.8 ± 7.7 | -20.2 ± 14.0 | -21.3 ± 19.1 | -9.5 ± 10.4 | -12.6 ± 8.9 | -34.9 ± 19.8 | -30.4 ± 8.6 | -19.7 ± 8.4 | 100 | 59.9 | 28.7 | 68.4 | > 1000 | 
O=c1ccc2cc(OCCCc3nnnn3CC3CCCCC3)ccc2[nH]1 [Compound 5, 6-[3-(1-Cyclohexylmethyltetrazol-5-yl)propoxy]carbostyril] | -10.7 ± 10.6 | -15.2 ± 11.2 | -12.5 ± 15.3 | -18.1 ± 9.6 |  | -30.2 ± 8.2 | -21.2 ± 5.7 | -21.7 ± 7.5 | -24.7 ± 10.4 |  | 100 | 64.1 | 34.2 | 71 | > 1000 | 
O=c1ccc2cc(OCCCc3nnnn3C3CCCCC3)ccc2[nH]1 [Compound 1, 6-[3-(1-Cyclohexyltetrazol-5-yl)propoxy]carbostyril] | -10.1 ± 3.7 | -10.0 ± 3.7 | -17.4 ± 5.2 | -25.4 ± 10.5 | -34.6 ± 13.5 | -3.3 ± 5.2 | -9.9 ± 6.7 | -36.7 ± 9.7 | -33.4 ± 8.6 | -31.3 ± 8.8 | 100 | 63.4 | 32.7 | 72.2 | > 1000 | 36.9
O=c1ccc2cc(OCCCc3nnnn3C3CCCCCCC3)ccc2[nH]1 [Compound 6, 6-[3-(1-Cyclooctyltetrazol-5-yl)propoxy]carbostyril] | -9.2 ± 4.8 | -12.0 ± 5.6 | -18.5 ± 6.1 | -30.3 ± 10.8 | -26.8 ± 10.6 | -8.5 ± 4.3 | -10.7 ± 7.6 | -40.8 ± 9.9 | -35.4 ± 9.5 | -28.4 ± 7.7 | 100 | 75.5 | 30.5 | 75.3 | > 1000 | 
